Our source for the MIC and IC50 values is publication PMC4029172 (eLife, 2014).

Converted amounts (≈) assume the structure as drawn. Numbered stars: 1 amine (or outer) side, 2 acyl side, 3 side chain; on linkers, the order of the positions; unused ones are H or OH. Bridge positions count the residues as written; N and C are the ends. Square brackets hold non-standard residues; d marks the D form. Peptide text beside a SMILES is read from it. * marks the point of attachment. X4 = CC(Oc1ccc(C(N[*:1])C(=O)[*:2])cc1)C(O)(C=CC(=O)[*:3])CCl; NMeF = CN[CH](Cc1ccccc1)C(=O)O; X3 = CC(C)C(O)C(C)C(=O)*

Assay [1] deals with Enterobacter cloacae ATCC 13047. Nature of the assay: microbe, parasite or virus in culture. It is filed as cell-based. The note with it: ATCC13047.
Assay [2] deals with Haemophilus influenzae ATCC 49247. As to the kind of experiment: microbe, parasite or virus in culture. It is filed as cell-based. As to conditions: ATCC49247.
In assay [3] the test system is Moraxella catarrhalis ATCC 25238. As to the kind of experiment: microbe, parasite or virus in culture. It is filed as cell-based. The note with it: ATCC25238.
Assay [4] concerns the target Thermus thermophilus RNAP (Thermus thermophilus, UniProt Q8RQE8+Q8RQE9). Nature of the assay: biochemical.

Thermus thermophilus RNAP, sequence (Q8RQE8 whole entry): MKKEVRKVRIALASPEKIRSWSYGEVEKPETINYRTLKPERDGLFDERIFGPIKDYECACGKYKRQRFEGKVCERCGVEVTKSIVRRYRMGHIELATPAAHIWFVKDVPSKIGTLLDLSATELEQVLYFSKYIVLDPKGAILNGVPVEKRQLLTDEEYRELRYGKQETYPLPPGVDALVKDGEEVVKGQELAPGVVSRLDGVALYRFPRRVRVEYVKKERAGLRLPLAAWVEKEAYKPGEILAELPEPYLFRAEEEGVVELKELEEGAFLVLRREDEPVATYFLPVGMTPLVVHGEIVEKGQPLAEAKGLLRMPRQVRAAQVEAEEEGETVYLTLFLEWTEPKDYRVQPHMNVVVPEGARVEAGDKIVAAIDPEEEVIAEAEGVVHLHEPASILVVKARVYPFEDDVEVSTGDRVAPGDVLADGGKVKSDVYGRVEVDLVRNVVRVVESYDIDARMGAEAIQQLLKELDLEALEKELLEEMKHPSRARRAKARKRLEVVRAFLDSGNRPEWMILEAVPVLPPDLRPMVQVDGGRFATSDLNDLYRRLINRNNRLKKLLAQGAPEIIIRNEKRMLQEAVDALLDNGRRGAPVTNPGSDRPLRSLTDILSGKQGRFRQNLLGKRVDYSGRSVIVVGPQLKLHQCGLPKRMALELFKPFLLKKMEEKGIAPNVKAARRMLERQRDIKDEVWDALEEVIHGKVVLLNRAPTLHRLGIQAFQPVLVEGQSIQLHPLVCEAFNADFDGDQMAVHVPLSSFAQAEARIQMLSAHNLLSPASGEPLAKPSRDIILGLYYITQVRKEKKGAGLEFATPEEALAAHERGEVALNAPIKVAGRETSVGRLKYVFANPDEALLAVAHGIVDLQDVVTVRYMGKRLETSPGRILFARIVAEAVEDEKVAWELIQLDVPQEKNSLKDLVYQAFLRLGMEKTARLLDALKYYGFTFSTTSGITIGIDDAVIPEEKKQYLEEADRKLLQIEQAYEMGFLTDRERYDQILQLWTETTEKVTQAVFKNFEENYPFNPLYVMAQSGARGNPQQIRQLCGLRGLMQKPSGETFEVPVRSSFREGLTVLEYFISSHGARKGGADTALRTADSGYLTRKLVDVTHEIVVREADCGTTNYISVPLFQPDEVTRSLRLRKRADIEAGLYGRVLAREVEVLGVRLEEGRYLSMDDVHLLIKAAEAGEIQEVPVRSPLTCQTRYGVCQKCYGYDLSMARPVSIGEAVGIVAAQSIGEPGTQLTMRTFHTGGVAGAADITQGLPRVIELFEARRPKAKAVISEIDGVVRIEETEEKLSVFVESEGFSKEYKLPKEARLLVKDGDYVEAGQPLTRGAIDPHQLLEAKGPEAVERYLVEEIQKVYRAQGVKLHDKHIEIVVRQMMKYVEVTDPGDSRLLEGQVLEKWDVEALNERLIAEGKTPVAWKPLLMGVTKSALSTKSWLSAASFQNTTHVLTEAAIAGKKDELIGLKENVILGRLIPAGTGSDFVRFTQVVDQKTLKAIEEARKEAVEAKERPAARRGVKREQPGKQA
Thermus thermophilus RNAP, sequence (Q8RQE9 whole entry): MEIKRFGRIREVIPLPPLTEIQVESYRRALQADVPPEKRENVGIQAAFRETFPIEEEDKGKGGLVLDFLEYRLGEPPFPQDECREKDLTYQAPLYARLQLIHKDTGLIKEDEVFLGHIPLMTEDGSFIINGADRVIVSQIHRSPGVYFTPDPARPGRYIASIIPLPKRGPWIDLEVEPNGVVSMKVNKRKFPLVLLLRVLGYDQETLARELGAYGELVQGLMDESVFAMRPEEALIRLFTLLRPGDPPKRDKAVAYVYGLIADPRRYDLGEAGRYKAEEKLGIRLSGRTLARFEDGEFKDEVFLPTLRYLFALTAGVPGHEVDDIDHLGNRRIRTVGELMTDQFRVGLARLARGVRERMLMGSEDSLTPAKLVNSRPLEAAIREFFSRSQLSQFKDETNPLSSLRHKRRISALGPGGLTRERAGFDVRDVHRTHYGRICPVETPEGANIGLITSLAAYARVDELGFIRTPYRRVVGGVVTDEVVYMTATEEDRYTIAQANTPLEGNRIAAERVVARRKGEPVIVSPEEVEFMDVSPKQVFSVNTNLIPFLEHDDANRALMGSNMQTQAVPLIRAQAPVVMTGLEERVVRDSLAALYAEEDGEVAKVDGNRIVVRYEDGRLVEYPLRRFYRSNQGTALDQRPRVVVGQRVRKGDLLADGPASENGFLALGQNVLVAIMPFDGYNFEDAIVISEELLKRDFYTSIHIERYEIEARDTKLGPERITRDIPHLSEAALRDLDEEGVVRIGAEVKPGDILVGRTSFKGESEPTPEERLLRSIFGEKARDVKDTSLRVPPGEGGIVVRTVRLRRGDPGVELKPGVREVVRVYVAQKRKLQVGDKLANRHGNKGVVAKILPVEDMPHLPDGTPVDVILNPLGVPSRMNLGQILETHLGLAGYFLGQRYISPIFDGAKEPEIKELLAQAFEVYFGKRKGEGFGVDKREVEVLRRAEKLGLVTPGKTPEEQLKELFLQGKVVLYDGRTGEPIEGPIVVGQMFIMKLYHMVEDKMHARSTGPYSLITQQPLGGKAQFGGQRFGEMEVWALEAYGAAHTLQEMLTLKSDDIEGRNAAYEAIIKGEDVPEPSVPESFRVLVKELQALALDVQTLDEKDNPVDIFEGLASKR

In general, IC50 refers to the point on the concentration scale where inhibition reaches its midpoint. As for `CCC(C)C1NC(=O)C(NC(=O)C(C)C(O)C(C)C)C(C)OC(=O)C2COC(=O)CNC(=O)C=CC(O)(CCl)C(C)Oc3ccc(cc3)C(NC1=O)C(=O)N(C)C(Cc1ccccc1)C(=O)NC(C(C)O)C(=O)N2` (stereo not shown) [SalB, salinamide B] (X3-TI[X4][NMeF]TS; ester 1-C; linker 3-6 via G; configuration not given here), the MIC was 12.5 µg/mL (≈ 11.8 µM) in assay [1], 12.5 µg/mL (≈ 11.8 µM) in assay [2] and more than 50 µg/mL in assay [3]. In assay [4], this compound returned an IC50 of more than 100 µM.
